Activity calls are given as the source filed them. No cut-off for these calls is given here.
Tests used:
Mus musculus [1] = assay: Anti-colitis activity against DSS-induced colitis in C57BL/6 mouse model assessed as fold decrease in disease activity index at 50 mg/kg, po administered via gavage twice daily for 10 days relative to control; assay type: functional; conditions: time 10 day
Mus musculus [2] = assay: Anti-colitis activity against DSS-induced C57BL/6 mouse model of colitis assessed as fold change in disease activity index at 25 to 100 mg/kg, po administered via gavage twice a day for 10 days relative to SASP; assay type: functional; conditions: dose 25-100 mg/kg; time 10 day
Mus musculus [3] = assay: Anti-colitis activity against DSS-induced colitis in C57BL/6 mouse model assessed as increase in colon length at 50 mg/kg, po administered via gavage twice a day for 10 days; assay type: functional, organism-based; conditions: time 10.0 day
Mus musculus [4] = assay: Antiinflammatory activity in DSS-induced C57BL/6 mouse model of colitis assessed as decrease in TNF-alpha level 25 to 100 mg/kg, po administered via gavage twice a day for 10 days; assay type: functional, organism-based; conditions: dose 25-100 mg/kg, time 10.0 day
Mus musculus [5] = assay: Antiinflammatory activity in DSS-induced C57BL/6 mouse model of colitis assessed as decrease in IL-1beta level 25 to 100 mg/kg, po administered via gavage twice a day for 10 days; assay type: functional, organism-based; conditions: dose 25-100 mg/kg, time 10.0 day
Mus musculus [6] = assay: Anti-colitis activity against DSS-induced colitis in C57BL/6 mouse model assessed as decrease in MPO level in colon at 50 mg/kg, po administered via gavage twice a day for 10 days; assay type: functional; design: scale not given: the % may be the effect or the level left; conditions: time 10 day
Mus musculus [7] = assay: Antiinflammatory activity in DSS-induced C57BL/6 mouse model of colitis assessed as decrease in […] level 25 to 100 mg/kg, po administered via gavage twice a day for 10 days; assay type: functional, organism-based; conditions: dose 25-100 mg/kg, time 10.0 day
Mus musculus [8] = assay: Anti-colitis activity against DSS-induced colitis in C57BL/6 mouse model assessed as reduction colonic damage at 50 mg/kg, po administered via gavage twice a day for 10 days; assay type: functional, organism-based; conditions: time 10.0 day
Mus musculus [9] = assay: Anti-colitis activity against DSS-induced colitis in C57BL/6 mouse model assessed as increase in colon length at 25 mg/kg, po administered via gavage twice daily for 10 days; assay type: functional, organism-based; conditions: time 10.0 day
Mus musculus [10] = assay: Anti-colitis activity against DSS-induced C57BL/6 mouse model of colitis assessed as fold change in colon length at 25 to 100 mg/kg, po administered via gavage twice a day for 10 days relative to SASP; assay type: functional; conditions: dose 25-100 mg/kg; time 10 day
Mus musculus [11] = assay: Antiinflammatory activity in DSS-induced C57BL/6 mouse model of colitis assessed as increase in IL-10 level 25 to 100 mg/kg, po administered via gavage twice a day for 10 days; assay type: functional, organism-based; conditions: dose 25-100 mg/kg, time 10.0 day
Mus musculus [12] = assay: Anti-colitis activity against DSS-induced C57BL/6 mouse model of colitis assessed as fold change in body weight recovery at 25 to 100 mg/kg, po administered via gavage twice a day for 10 days relative to SASP; assay type: functional; conditions: dose 25-100 mg/kg; time 10 day
Mus musculus [13] = assay: Anti-colitis activity against DSS-induced colitis in C57BL/6 mouse model assessed as body weight recovery at 50 mg/kg, po administered via gavage twice a day for 10 days; assay type: functional, organism-based; conditions: time 10.0 day
Mus musculus [14] = assay: Anti-colitis activity against DSS-induced colitis in C57BL/6 mouse model assessed as assessed as recovery of body weight at 25 mg/kg, po administered via gavage twice daily for 10 days; assay type: functional, organism-based; conditions: time 10.0 day
Mus musculus [15] = assay: Anti-colitis activity against DSS-induced C57BL/6 mouse model of colitis assessed as increase in colon length at 50 mg/kg, po administered via gavage DSS stimulation for 5 days followed by compound addition once daily for 10 days; assay type: functional, organism-based; conditions: time 10.0 day
Mus musculus [16] = assay: Anti-colitis activity against DSS-induced C57BL/6 mouse model of colitis assessed as assessed as body weight recovery at 50 mg/kg, po administered via gavage DSS stimulation for 5 days followed by compound addition once daily for 10 days; assay type: functional, organism-based; conditions: time 10.0 day

O=C(O)c1cc(/N=N/c2ccc(S(=O)(=O)Nc3ccccn3)cc2)ccc1O [SULFASALAZINE]
fold change (FC) (Mus musculus [1]): 1.5 | fold change (FC) (Mus musculus [2]): 2.3 | Activity (Mus musculus [3]): Active | Activity (Mus musculus [4]): Active | Activity (Mus musculus [5]): Active | Activity (Mus musculus [6]): 27.3% | Activity (Mus musculus [7]): Active | Activity (Mus musculus [8]): Active | Activity (Mus musculus [9]): Active | fold change (FC) (Mus musculus [10]): 1.2 | Activity (Mus musculus [11]): Active | fold change (FC) (Mus musculus [12]): 2.1 | Activity (Mus musculus [13]): Active | Activity (Mus musculus [14]): Active | Activity (Mus musculus [15]): Active | Activity (Mus musculus [16]): Active

Source: ChEMBL document CHEMBL5046231, “Modulation of Naturally Occurring Linear Dipeptide Chirality to Reduce the Affinity for Oligopeptide Transporter 1 and Increase Intestinal Stability for an Enhanced Colon-Targeting Effect in the Treatment of Inflammatory Bowel Disease: An Application of trans-4-l-Hydroxyprolyl-l-serine” (J Med Chem, 2022)
